Measured values: patent US20050055748A1, “Stress-responsive genes, regulatory elements, and methods of use for same” (priority 2003, published 2005)
“Also recorded” adds a separate entry of the source.

Key:
Assay type in all cases: cell-based, Zea mays
Hi-II maize cells = assay: Growth of Hi-II maize callus cells on media containing sucrose and raffinose, with or without dehydration stress; conditions: for Relative weight gain, Dehydration stressed: dried in a flowhood for 4 h; for Relative weight gain, Dehydration stressed / Relative weight gain, Control: increase in weight relative to initial weight, means of three replicates; for Relative weight gain, Control: no dehydration stress
Description: Table 1. Growth of Hi-II maize cells in culture on media containing sucrose and raffinose. Hi-II cells were weighed, cultured on different media for 4 d, transferred to N6 medium, cultured for another 7 d, and re-weighed. For dehydration stress, Hi-II cells were weighed, cultured on different media for […] , dried in a flowhood for 4 h, subsampled for water content, returned to the initial media for 1 d, transferred to N6 medium, cultured for 7 days, and re-weighed. Growth rates (increase in weight relative to initial weight) and water contents (dry weight basis) are the means of three replicates. Analysis of variance and mean separations were calculated among media within a dehydration stress treatment.
(§1) Maize Hi-II callus cultures were initiated according to Armstrong and Green (1985) from immature embryos isolated from Hi-II maize plants provided by Pioneer. Cultures were incubated in the dark at 25° C. on solid N6 medium containing 2% (w/v) sucrose (Chu et al., 1975) amended with 2 mg/L 2,4-dichlorophenoxyacetic acid, 25 mmol/L L-proline, and 10 μmol/L AgNO3, pH 5.8 (N6S2 medium) and sub-cultured every two weeks onto fresh media. For experimental treatments, approximately 2 g of cells (fresh weight) were added to each 100×15 mm plate. To determine the effect of various sugars and environmental stresses on the expression of ZmGOLS and ZmRAFS genes in maize Hi-II callus cells, callus was cultured on N6 media supplemented with different concentrations of sugars and: a) grown at 25° C. in the dark (control conditions); b) exposed to 42° C. for 24 h (heated); c) exposed to 4° C. for 24 h (chilled); or d) exposed to a current of air at 25° C. in a laminar flow hood for 4 h (dehydrated). To determine the responsiveness of ZmGOLS and ZmRAFS genes to exogenous ABA, calli were grown on media with 1, 10, and 100 μM cis, trans-ABA (Sigma) under control conditions for 1 d prior to harvest and RNA extraction.
Samples of Hi-II cells growing on N6S2 were weighed and placed on N6S2, N6S5, or N6S5 supplemented with 0.1% w/v raffinose. Callus was grown for 4 d at 25° C. on these various media. The callus on a particular medium was separated into two equal sub-samples and the fresh weight obtained. A sub-sample of half of the callus cells per plate for each medium was subjected to dehydration stress by removal from the medium and exposure to a current of air in a flow hood for 4 h. The remaining half of the callus cells were not exposed to stress. After 4 h dehydration stress the callus was placed back on its respective medium for an additional 22 h. Previously stressed and non-stressed calli were then transferred to N6S2 for one week. At the end of the week the calli were weighed again to determine how much growth had occurred during the week. The growth of the cells was expressed as the increase in fresh weight after one week of growth on N6S2 relative to the callus fresh weight 7 days earlier (Dennehey et al.; 1994). This experiment was repeated 3 times.

ZmGOLS2 = ZmGOLS2 gene expression in maize Hi-II callus (northern blot, RPA); conditions: for ZmGOLS2 mRNA in stressed callus (FIG. 7A): 2% sucrose plus 0.01% myo-inositol or 7.8% mannitol, dehydration 4 h or heat 42° C. 24 h
Description: as §1
(§2) Sucrose and raffinose amounts in N6 media were altered, singly for sucrose or in combination with raffinose, to determine if RAFS substrates or the final product of the coordinate action of GOLS and RAFS influenced ZmGOLS and ZmRAFS gene expression. Because it is not known whether sucrose or raffinose are taken up into Hi-II cells directly or if they are hydrolyzed prior to uptake, glucose, fructose, galactose, and melibiose were also supplied. Myo-inositol (1,2,3,5-trans-4,6-hexahydroxy cyclohexane, Sigma), a GOLS substrate, was added to N6S2 media at amounts from 0.01-1% w/v. To determine if gene expression was regulated by osmotic stress, N6S2 media was amended with 0.1% to 7.8% w/v mannitol. Callus cells were also grown on N6 with combinations of sugars and the myo-inositol isomer, scyllo-inositol. All chemicals were sterilized by filtration and added to autoclaved media cooled to 65° C. just prior to pouring the plates. Hi-II callus cells on these various media were maintained under control conditions or subjected to stress (see above) prior to being harvested for sugar or RNA extraction or moisture content analysis. Cells were transferred to amended N6 media for 8 days, the environmental stress (if any) applied, and the cells harvested.
(§3) Total RNA from seeds, regardless of treatment, was extracted according to Wan and Wilkins (1994). Total RNA (20 μg per lane) from seeds was transferred onto positively charged nylon membranes (Amersham Life Science Inc., Arlington Heights, Ill., USA) in 10×SSC (1×SSC is 150 mM NaCl and 15 mM Na citrate pH 7) overnight, the blot dried and UV cross-linked at 50 mJoules on a GS genelinker UV chamber (Bio-Rad Laboratories, Hercules, Calif., USA). After rinsing the membranes for 5 min in 2×SSC, blots were placed in pre-hybridization solution (50% formamide, 5× Denhardt's solution (Denhardt 1966), 100 μg ml^−1 boiled, sheared salmon sperm DNA, 0.2% SDS, 6×SSC pH 7.0, Sambrook et al. 1989) for 4-6 h at 42° C. Randomly labeled, radioactive cDNA probes ([^32P] dCTP) were hybridized to the blots for at least 12 h at the same temperature as pre-hybridization. The primary wash was done in 2×SSC, 0.1% SDS, RT for 5 min, and repeated but at 65° C. for 30 min. The two final high stringency washes were in 0.2×SSC, 0.1% SDS at 65° C. for 30 min each. The hybridized probe was detected by autoradiography using Kodak X-OMAT X-ray film (Eastman-Kodak Ltd.) or on a phosphoimaging screen using a Phosphorlmager (Molecular Dynamics).
The high degree of sequence homology among ZmGOLS genes prompted verification of results from northern blot analysis using RPAs (RPA III, Ambion, Little Rock, Tex., USA). […]

ZmRAFS1 = ZmRAFS1 gene expression in maize Hi-II callus (northern blot); conditions: for ZmRAFS1 expression, effect of raffinose or galactose: 4% sucrose plus raffinose (0.01-1%) or 0.33% galactose, 42° C. for 1 d (FIG. 8C); for ZmRAFS1 mRNA accumulation with myo-inositol or mannitol in the media (FIG. 8A): 2% sucrose plus 0.01% myo-inositol or 7.8% mannitol, control, dehydrated, 4 or 42° C.
Description: as §1, §2, §3

[1] = unstressed cells on N6+2% (w/v) sucrose, 1, 10, 100 μM ABA, 1 d

OC[C@H]1O[C@@](CO)(O[C@H]2O[C@H](CO)[C@@H](O)[C@H](O)[C@H]2O)[C@@H](O)[C@@H]1O [2% sucrose, sucrose]
Relative weight gain, Dehydration stressed (Hi-II maize cells): 1.35 ± 0.16 b | Relative weight gain, Control (Hi-II maize cells): 1.89 ± 0.17 a

OC[C@H]1O[C@@](CO)(O[C@H]2O[C@H](CO)[C@@H](O)[C@H](O)[C@H]2O)[C@@H](O)[C@@H]1O [5% sucrose, sucrose]
Relative weight gain, Dehydration stressed (Hi-II maize cells): 1.37 ± 0.02 b | Relative weight gain, Control (Hi-II maize cells): 1.45 ± 0.04 b

CC1=CC(=O)CC(C)(C)[C@@]1(O)/C=C/C(C)=C\C(=O)O [ABA, abscisic acid]
ZmGOLS2 gene expression in response to applied ABA (ZmGOLS2; [1]): not responsive to ABA | ZmRAFS1 gene expression in response to applied ABA (ZmRAFS1; [1]): not induced beyond that of 2% sucrose alone

O=C[C@H](O)[C@@H](O)[C@@H](O)[C@H](O)CO [galactose]
ZmRAFS1 expression, effect of raffinose or galactose (ZmRAFS1): as effective as raffinose at repressing ZmRAFS1 expression at equal galactose molarities

OC[C@@H](O)[C@@H](O)[C@H](O)[C@H](O)CO [mannitol]
ZmGOLS2 mRNA in stressed callus (FIG. 7A) (ZmGOLS2): upregulated ZmGOLS2 gene expression when subjected to dehydration but not to heat stress | ZmGOLS2 transcription, low mannitol (ZmGOLS2; dehydrated cells, 0.1-0.5% w/v): repressed ZmGOLS2 transcription below that present in cells grown on 2% sucrose alone | ZmGOLS2 transcription, very high mannitol (ZmGOLS2; dehydrated cells, 7.8% w/v): upregulated ZmGOLS2 transcription | ZmRAFS1 mRNA accumulation with myo-inositol or mannitol in the media (FIG. 8A) (ZmRAFS1): did not influence ZmRAFS1 gene expression

O[C@H]1[C@H](O)[C@@H](O)[C@H](O)[C@@H](O)[C@H]1O [myo-inositol, 1,2,3,5-trans-4,6-hexahydroxy cyclohexane]
ZmGOLS2 mRNA in stressed callus (FIG. 7A) (ZmGOLS2): ZmGOLS2 mRNA accumulation | ZmGOLS2 transcription, low myo-inositol (ZmGOLS2; dehydrated cells, 2% sucrose, 0.01-0.1% w/v): upregulated ZmGOLS2 transcription | ZmGOLS2 transcription, high myo-inositol (ZmGOLS2; dehydrated cells, 2% sucrose, 1% w/v): repressed ZmGOLS2 transcription below that on 2% sucrose alone | ZmRAFS1 mRNA accumulation with myo-inositol or mannitol in the media (FIG. 8A) (ZmRAFS1): did not elicit greater ZmRAFS1 mRNA accumulation with the exception of cells exposed to heat shock

OC[C@H]1O[C@H](OC[C@H]2O[C@H](O[C@]3(CO)O[C@H](CO)[C@@H](O)[C@@H]3O)[C@H](O)[C@@H](O)[C@@H]2O)[C@H](O)[C@@H](O)[C@H]1O [raffinose]
callus mass accumulation (Hi-II maize cells; 0.1% raffinose in medium with 5% sucrose, unstressed): prevented the detrimental effect of high sucrose on callus mass accumulation | callus growth following dehydration stress (Hi-II maize cells; 0.1% w/v raffinose with 5% sucrose, 4 h dehydration): grew as well as callus that had not been subjected to dehydration; also recorded: capable of alleviating dehydration-induced damage | ZmRAFS1 expression, effect of raffinose or galactose (ZmRAFS1): may inhibit the expression of ZmRAFS1 upon attaining a sufficient concentration

O[C@H]1[C@H](O)[C@@H](O)[C@H](O)[C@@H](O)[C@@H]1O [scyllo-inositol]
ZmGOLS2 expression, low scyllo-inositol with high mannitol (ZmGOLS2; dehydrated cells, 2% sucrose (FIG. 7C)): did not alter the expression of ZmGOLS2 relative to similar concentrations of myo-inositol and mannitol

OC[C@H]1O[C@@](CO)(O[C@H]2O[C@H](CO)[C@@H](O)[C@H](O)[C@H]2O)[C@@H](O)[C@@H]1O [sucrose]
ZmRAFS1 gene expression, effect of sucrose and its monosaccharides (ZmRAFS1; heat-stressed callus, 2% (w/v) or greater sucrose (FIG. 8B, 8C)): up-regulated by sucrose
